Results on 13 compounds are retold here after publication PMC10603992, “Antimicrobial and Adjuvant Potencies of Di-n-alkyl Substituted Diazalariat Ethers” (Antibiotics, 2023).

Each structure is given as a SMILES string. Values after ≈ are worked out from the molar mass of the structure shown. Where two headings read alike, the source gives them in different places.

The conditions of data set [1]: no reference given, cited from earlier work; for pKa of the carboxyl groups: general value.
Data set [2] relates to human embryonic kidney (HEK-293) cells. The experiment in a line: Cytotoxicity against HEK-293 cells. Format: cell-based. The settings on record: three independent trials. The text has this: (§1) The potential toxicity of 1–6 is a critical factor in their application either as an antimicrobial or an adjuvant. In vitro toxicity studies were therefore conducted using human embryonic kidney (HEK-293) and simian kidney (COS-7) cells. The graphs shown in Figure 20 show the percentage survival of each cell type as a function of lariat ether concentration on the logarithmic x-axis. In each graph, the IC50 value is specified for each compound and cell type. The value of IC50 is the concentration of lariat ether that inhibits the growth of 50% of the cells studied.
(§2) The cytotoxicity experiments were conducted as described in [44].

In data set [3] the test system is K12 E. coli. The experiment in a line: MIC against K12 E. coli. Format: cell-based.
In data set [4] the test system is S. aureus. The experiment in a line: MIC against S. aureus under various pH and media conditions. The note with it: for Change in MIC as the pH was increased from 6.4 to 8.4: S. aureus, Mueller Hinton medium. The format is cell-based, Staphylococcus aureus.
In data set [5] the test system is S. aureus 1199B. The data set is described as follows: Checkerboard combination with norfloxacin. Format: cell-based, Staphylococcus aureus. From the text: Each of the checkerboard analyses shown in Figure 7 combines one of 1–6 with norfloxacin. S. aureus 1199B is resistant to norfloxacin. By combining varying concentrations of both norfloxacin and a lariat ether or lariat ether derivative, potency enhancement, if any, can be determined. In the graphs (checkerboards) shown, the potency of each concentration combination can be assessed visually.
In both cases, the concentrations varied by a factor of two. Four controls were employed on each checkerboard plate: full growth (only cells), no growth (only media), and then a column for each drug alone to accurately reflect their individual MIC values. The concentrations of amphiphile and antibiotic tested were ½, ¼, ^1/8, ^1/16, and ^1/32 of the MIC. Preparation of the stock solutions and plates was by the same method described in the minimum inhibitory concentration section.

Data set [6] has as its system S. aureus 1199B. The experiment in a line: MIC against S. aureus 1199B. The format is cell-based, Staphylococcus aureus. The settings on record: for MIC: Staphylococcus aureus, 1199B, read-out: MIC S. aureus 1199B, MHII media, 90% growth inhibition.
A short description of data set [7]: Turbidimetric solubility limit in MHII or PBS. The settings on record: DMSO ≤0.5%. The format is physicochemical.
Data set [8] relates to DH5α E. coli. The data set is described as follows: MIC against DH5α E. coli. Format: cell-based. The note with it: Escherichia coli, read-out: Minimum inhibitory concentration against DH5α E. coli.
The subject of data set [9] is Tet^R E. coli. The experiment in a line: MIC against Tet^R E. coli. The note with it: Escherichia coli, read-out: MIC Tet^R E. coli. Format: cell-based.
Data set [10] concerns simian kidney (COS-7) cells. The experiment in a line: Cytotoxicity against COS-7 cells. The format is cell-based. The note with it: Chlorocebus aethiops, COS-7, percentage survival, three independent trials.
Excerpt: as §1, §2

Data set [11] relates to S. aureus (1199B). The experiment in a line: Membrane permeability (propidium iodide / alamar blue). Format: cell-based, Staphylococcus aureus. The settings on record: compound at ½ MIC. Here is the method: Membrane permeability was assessed by using the dyes propidium iodide and alamar blue. […] However, when PI does enter a cell, it intercalates within the DNA structure. […] When intercalation occurs, a strong fluorescent emission can be detected. Alamar blue, based on resazurin, is a nontoxic weakly fluorescent dye that is sensitive to reduction potential within vital cells. When reduced, it is converted into highly fluorescent resorufin (7-hydroxy-3H-phenoxazin-3-one).
The combination of alamar blue and propidium iodide allowed us to assess the membrane permeability of S. aureus while confirming cellular vitality. Results of the PI/alamar blue studies with S. aureus are summarized in the graph of Figure 5. When S. aureus (1199B) was exposed to the two dyes, penetration of PI was relatively low and cellular vitality remained high. […] In general, cellular penetration and vitality correlated.
Membrane permeability studies were conducted as detailed in [48].

Data set [12] is described as follows: Dynamic light scattering of C12LE aggregation. Format: physicochemical. The note with it: for Slope of C12LE aggregation (DLS particle size): water, in the presence of the antimicrobial or C12LE alone. Here is the method: It is known that dialkyldiazacrowns form stable aggregates in aqueous solution [57, 62]. It was hypothesized that complexation between antimicrobials and macrocycles would alter or prevent the ability of the complex to form aggregates. […] Indeed, the particle sizes observed when chlortetracycline is present was almost indistinguishable from particle formation by C12LE (4) alone.
Measurements were performed on a Brookhaven Instruments Corp. ZetaPALS instrument at 25 °C using a 660 nm laser and correlating scattering at 90°. Samples were prepared by initially dissolving the amphiphile in filtered DMSO obtained from ThermoFisher. Next, they were diluted into 1× PBS such that DMSO was fixed at 0.5% in 15 mL sterile conical tubes. 10× PBS was obtained commercially, then diluted 10-fold in MQ H2O. The mixture was vortexed and incubated at room temperature for 2 h, then transferred to a clean quartz cuvette and equilibrated in the instrument for 10 min at 25 °C. Ten measurements consisting of 2 min runs were made on each sample. The average effective diameter was calculated with standard error reported for at least three trials.

Data set [13] relates to DH5α E. coli. Also noted: method as in PMID 15858645. The settings on record: free bases, previously reported data; cited from earlier work.
Setting [14] is: Homo sapiens, HEK293, percentage survival.
[15] abbreviates: Escherichia coli, MHII media, 90% growth inhibition, read-out: MIC K12 E. coli.
The mark [16] stands for this setting: no additional antimicrobial, MICs in table limited to […].

As for `CC1(C)S[C@@H]2[C@H](NC(=O)[C@H](N)c3ccccc3)C(=O)N2[C@H]1C(=O)O` [Ampicillin, ampicillin], the “pKa of the carboxyl groups” value in data set [1] was 2.6–2.8.

For `CCCCCCCCCCN1CCOCCOCCN(CCCCCCCCCC)CCOCCOCC1` [C10LE (1), N,N′-Di-n-decyl-4-13-diaza-18-crown-6], the results for the IC50 in data set [2] (setting [14]) and in [2] (percentage survival) were 13 µM and at most 10 µM, respectively. Moreover, the MIC in [3] (MHII media, 90% growth inhibition, read-out: MIC K12 E. coli) is 10 µM (≈ 5.43 µg/mL); in data set [4] (MH medium, read-out: MIC S. aureus, MH), 16 µM (≈ 8.69 µg/mL); in data set [4] (MHII, pH 6.4, read-out: MIC S. aureus, MHII pH 6.4), 16 µM (≈ 8.69 µg/mL); in data set [4] (MHII, pH 7.4, read-out: MIC S. aureus, MHII pH 7.4), at least 16 µM; in [4] (MHII, pH 8.4, read-out: MIC S. aureus, MHII pH 8.4), 32 µM (≈ 17.4 µg/mL); in data set [4] (Staphylococcus aureus, MH + Ca2+, read-out: MIC S. aureus, MH + Ca^2+) it was 16 µM. Further, the MIC in data set [8] came out at 11 µM (≈ 5.97 µg/mL); in [9], 8 µM (≈ 4.34 µg/mL). In data set [4], the “Change in MIC as the pH was increased from 6.4 to 8.4” value is “changes in MIC were observed”. Moreover, in data set [5] (lariat ether co-administered at 2 µM), the “Norfloxacin concentration required to effect 90% growth inhibition” value is 0.5 µM. In addition, in data set [5] (norfloxacin-resistant S. aureus 1199B, checkerboard), the “Fold increase in the potency of norfloxacin” value was 128 fold. Further, the “MIC S. aureus 1199B” value in data set [6] (MHII media, 90% growth inhibition) is listed as 8 µM (≈ 4.34 µg/mL). For the same compound, the solubility at 2 h was at least 128 µM in [7] (Mueller Hinton II, pH 7.3, 2 h at 37 °C, read-out: Solubility limit in MHII) and at least 128 µM in [7] (phosphate-buffered saline, 2 h at 37 °C, read-out: Solubility limit in PBS).

Take `CCCCCCCCCCCC[N+]1(C)CCOCCOCC[N+](C)(CCCCCCCCCCCC)CCOCCOCC1` (stereo not drawn) [C12LE•2MeI (6), N,N′-Di-n-dodecyl-4-13-diaza-18-crown-6 bis(methiodide)]: the concentration for half-maximal inhibition (IC50) in data set [2] (setting [14]) is 11 µM; in data set [2] (percentage survival) it was at most 10 µM; in data set [10] it was 25 µM. The “PI penetration (membrane permeability)” value in [11] is recorded as “level of PI penetration similar to that observed for S. aureus alone”. In addition, the MIC in [3] (setting [15]) was 4 µM; in data set [4] (Staphylococcus aureus, pH 6.4, MHII, pH 6.4, read-out: MIC S. aureus, MHII pH 6.4), 2 µM; in [4] (Staphylococcus aureus, pH 7.4, MHII, pH 7.4, read-out: MIC S. aureus, MHII pH 7.4) it was 2 µM; in data set [4] (Staphylococcus aureus, pH 8.4, MHII, pH 8.4, read-out: MIC S. aureus, MHII pH 8.4), 2 µM; in data set [6], 1 µM; in data set [8] (setting [16]), 2 µM. The MIC in [9] was 16 µM. Also, the “Change in MIC as the pH was increased from 6.4 to 8.4” value in [4] is recorded as “unchanged”. The solubility at 2 h was 1 to 2 µM in data set [7] (Mueller Hinton II broth, 37 °C, pH 7.3, plasma or biological fluid, kinetic from dmso stock, Mueller Hinton II, pH 7.3, 2 h at 37 °C, read-out: Solubility limit in MHII) and at least 128 µM in data set [7] (phosphate-buffered saline, 37 °C, aqueous buffer, kinetic from dmso stock, phosphate-buffered saline, 2 h at 37 °C, read-out: Solubility limit in PBS).

With `CO/N=C(\C(=O)N[C@@H]1C(=O)N2C(C(=O)[O-])=C(C[N+]3(C)CCCC3)CS[C@H]12)c1csc(N)n1` [Cefepime, cefepime], in [12], the “Slope of C12LE aggregation (DLS particle size)” value (“Slope of C12LE aggregation” below) turned out to be 3.2.

For the compound `O=C(O)c1cn(C2CC2)c2cc(N3CCNCC3)c(F)cc2c1=O` [Ciprofloxacin, ciprofloxacin], in [12] (DLS), the “Slope relative to the particle size profile of C12LE alone” value is listed as “about 60%”. Further, the “Slope of C12LE aggregation” value in [12] came out at 1.8.

Take `NC[C@H]1O[C@H](O[C@H]2[C@H](O)[C@@H](O[C@H]3O[C@H](CO)[C@@H](O)[C@H](N)[C@H]3O)[C@H](N)C[C@@H]2N)[C@H](O)[C@@H](O)[C@@H]1O` [Kanamycin, kanamycin]: the “Slope of C12LE aggregation” value in data set [12] came out at 2.5.

Regarding `CCn1cc(C(=O)O)c(=O)c2cc(F)c(N3CCNCC3)cc21` [Norfloxacin, reference compound], the MIC in data set [3] (setting [15]) amounted to 0.125 µM (≈ 0.0399 µg/mL); in [6], 64 µM (≈ 20.4 µg/mL).

`CC1(C)S[C@@H]2[C@H](NC(=O)Cc3ccccc3)C(=O)N2[C@H]1C(=O)O` [Penicillin G, penicillin G]: the “pKa of the carboxyl groups” value in data set [1] is listed as 2.6–2.8.

Regarding `CCCCN1CCOCCOCCN(CCCC)CCOCCOCC1` [di-n-butyl-diaza-18-crown-6], in data set [1], the “pK1 of macro ring nitrogen atoms” value is listed as 9.40 and the “pK2 of macro ring nitrogen atoms” value is recorded as 7.97.

In the case of `CCCCCCCC[N+]1(C)CCOCCOCC[N+](C)(CCCCCCCC)CCOCCOCC1` (stereo not drawn) [n-octyl LE•MeI], the MIC in data set [8] (setting [16]) was above 128 µM.

For the compound `CCCCCCCCCCCCCCN1CCOCCOCCN(CCCCCCCCCCCCCC)CCOCCOCC1` [n-tetradecyl LE], the “Minimum inhibitory concentration against DH5α E. coli” value in [13] was above 128 µM. For the same compound, the MIC in [3] (Escherichia coli, read-out: MIC K12 E. coli, MHII media, 90% growth inhibition) was at least 128 µM.

For the compound `CCCCCCCCCCCCCC[N+]1(C)CCOCCOCC[N+](C)(CCCCCCCCCCCCCC)CCOCCOCC1` (stereo not drawn) [n-tetradecyl LE•MeI], in data set [8] (setting [16]), the MIC was above 128 µM.

On to `CCCCCCCCCCCN1CCOCCOCCN(CCCCCCCCCCC)CCOCCOCC1` [n-undecyl LE, N,N′-Di-n-undecyl-4,13-diaza-18-crown-6], for which the “Minimum inhibitory concentration against DH5α E. coli” value in data set [13] is 20 µM (≈ 11.4 µg/mL).
